From patent US7375088B2, “Polyene polyketides, processes for their production and their use as a pharmaceutical” (Thallion Pharmaceuticals Inc., priority 2003, dated 2008)

Experiments:
Aspergillus flavus = experiment: Disk diffusion assay (MEC and zone of inhibition); format: cell-based; details: for ZOI (zone of inhibition of fungal growth calculated for each MEC): at the MEC; for ZOI (zone of inhibition of fungal growth calculated for each MEC) / MEC (minimum effective concentration): 24 hours of incubation; for MEC (minimum effective concentration): disk diffusion
Aspergillus fumigatus = experiment: Disk diffusion assay (MEC and zone of inhibition); format: cell-based; details: for ZOI (zone of inhibition of fungal growth calculated for each MEC): at the MEC; for ZOI (zone of inhibition of fungal growth calculated for each MEC) / MEC (minimum effective concentration): 24 hours of incubation; for MEC (minimum effective concentration): disk diffusion

| SMILES | ZOI (zone of inhibition of fungal growth calculated for each MEC) (Aspergillus flavus) [mm] | MEC (minimum effective concentration) (Aspergillus flavus) [µg/mL] | ZOI (zone of inhibition of fungal growth calculated for each MEC) (Aspergillus fumigatus) [mm] | MEC (minimum effective concentration) (Aspergillus fumigatus) [µg/mL] | antifungal activity in disk diffusion assay (Aspergillus flavus) | antifungal activity in disk diffusion assay (Aspergillus fumigatus) |
| --- | --- | --- | --- | --- | --- | --- |
| CC[C@H](C)C[C@H](C)CCCCCCCCC(=O)N[C@H]1C[C@@H](O)[C@@H](NCCN)NC(=O)[C@@H]2[C@@H](O)CCN2C(=O)[C@H]([C@H](O)CCN)NC(=O)[C@H]([C@H](O)[C@@H](O)c2ccc(O)cc2)NC(=O)[C@@H]2C[C@@H](O)CN2C(=O)[C@H]([C@@H](C)O)NC1=O [Casponfungin] | 0.7 | 2.5 | 0.7 | 2.5 |  |  |
| OC(Cn1cncn1)(Cn1cncn1)c1ccc(F)cc1F [Fluconazole] | 0 | 0 | 0 | 0 | inactive | inactive |
| CCC(C)n1ncn(-c2ccc(N3CCN(c4ccc(OCC5COC(Cn6cncn6)(c6ccc(Cl)cc6Cl)O5)cc4)CC3)cc2)c1=O (centres unmarked) [Itraconazole] | 1.7 | 0.5 | 1.7 | 1.0 |  |  |
